Results on five compounds are retold here after publication PMC5063058, “Cephalosporins inhibit human metallo β-lactamase fold DNA repair nucleases SNM1A and SNM1B/apollo” (Chemical Communications (Cambridge, England), 2016).

The structures appear in SMILES notation. Where only a bound is given, the exact number is not on record here.

For orientation: Kd means the equilibrium constant for the complex coming apart. The low end stands for a tighter complex, the high end for a looser complex.

In test [1] the target is T1, SNM1B (Homo sapiens, UniProt Q9H816).
T1 construct: gene DCLRE1B; 5'-3' exonuclease with MBL and beta-CASP domains
T1 sequence (Q9H816 1-335): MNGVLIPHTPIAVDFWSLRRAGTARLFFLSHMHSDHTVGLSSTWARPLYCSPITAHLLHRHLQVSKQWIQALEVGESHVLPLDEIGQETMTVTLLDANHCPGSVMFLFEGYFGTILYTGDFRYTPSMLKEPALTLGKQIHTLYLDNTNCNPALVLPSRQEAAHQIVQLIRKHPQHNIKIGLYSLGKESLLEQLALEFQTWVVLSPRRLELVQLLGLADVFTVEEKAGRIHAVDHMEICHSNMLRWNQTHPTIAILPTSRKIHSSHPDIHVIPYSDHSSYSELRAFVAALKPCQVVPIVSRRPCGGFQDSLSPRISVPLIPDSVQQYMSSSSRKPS
As to the kind of experiment: real-time fluorescence nuclease assay (fluorescein/BHQ1 20-nt ssDNA). In kind it is biochemical. From the text: (§1) real-time fluorescence nuclease assay (fluorescein/BHQ1 20-nt ssDNA) on SNM1B

The target in test [2] is T2, SNM1A (Homo sapiens, UniProt Q6PJP8).
T2 construct: gene DCLRE1A; 5'-3' exonuclease with MBL and beta-CASP domains
T2 sequence (Q6PJP8 700-1040): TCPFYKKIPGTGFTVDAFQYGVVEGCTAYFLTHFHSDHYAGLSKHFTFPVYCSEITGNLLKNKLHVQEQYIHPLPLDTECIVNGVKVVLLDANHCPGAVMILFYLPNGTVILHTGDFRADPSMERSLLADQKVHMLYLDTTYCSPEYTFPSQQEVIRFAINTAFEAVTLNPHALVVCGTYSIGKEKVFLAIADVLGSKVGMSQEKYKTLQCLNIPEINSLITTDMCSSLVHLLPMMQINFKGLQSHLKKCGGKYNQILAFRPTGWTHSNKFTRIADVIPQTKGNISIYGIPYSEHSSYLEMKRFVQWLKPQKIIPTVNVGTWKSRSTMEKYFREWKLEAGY
The description is as above. In kind it is biochemical. The source says:
real-time fluorescence nuclease assay (fluorescein/BHQ1 20-nt ssDNA) on SNM1A

Assay in test [3]: as above
It counts as biochemical, Homo sapiens. Particulars: read-out: IC50 SNM1A ^a /μM.
From the text: as §1

Test [4] has as its target T2, SNM1A. As to the kind of experiment: quantitative 1H NMR binding assay.

Consider `CC(=O)OCC1=C(C(=O)O)N2C(=O)[C@@H](N)[C@H]2SC1` [compound 1, 7-ACA], for which the IC50 in test [1] came to 32 ± 10 µM; in test [2] it was 7 ± 1 µM.
The like results for `CC(=O)OCC1=C(C(=O)O)N2C(=O)[C@@H](NC(=O)CCC[C@@H](N)C(=O)O)[C@H]2SC1` [compound 2, Cephalosporin C] were, in that order, more than 500 µM and 61 ± 27 µM.
For `CC(C)(O/N=C(\C(=O)N[C@@H]1C(=O)N2C(C(=O)[O-])=C(C[n+]3ccccc3)CS[C@H]12)c1csc(N)n1)C(=O)O` [Ceftazidime], the IC50 in test [3] and in test [2] was more than 500 µM each time.
As to `CO/N=C(\C(=O)N[C@@H]1C(=O)N2C(C(=O)O)=C(CSc3nc(=O)c(=O)[nH]n3C)CS[C@H]12)c1csc(N)n1` [compound 4, Ceftriaxone], the values for the IC50 in test [1] and in test [2] were 40 ± 14 µM and 4 ± 2 µM, respectively. This compound gave a dissociation constant (Kd) in test [4] of 19 ± 4 µM.
Regarding `CO/N=C(\C(=O)N[C@@H]1C(=O)N2C(C(=O)O)=C(COC(C)=O)CS[C@H]12)c1csc(N)n1` [compound 3, Cefotaxime], the values for the IC50 in test [1] and in test [2] were 129 ± 20 µM and 5 ± 2 µM, respectively.
